Legend:
[1] = tested on: P. taeda embryogenic cell lines; assay: Embryo development and germination with abscisic acid applied in a liquid phase under polyester membranes; type: cell-based, Pinus taeda
Experimental: Loblolly pine embryogenic cell cultures were initiated, proliferated, cryopreserved, retrieved, further proliferated on gelled maintenance medium, and placed into liquid suspension for plating on embryo development medium MSG1 as described in Examples 3-4 above. Three replicate plates of each line were prepared for each of the following treatments:
Treatment B: the cells were plated onto polyester support membranes laid onto 1 ml liquid embryo development medium MSG1 containing PEG but lacking gelling agent and activated charcoal, pipetted over gelled embryo development medium MSG1
Treatment C: the cells were plated onto polyester support membranes laid onto 1 ml liquid embryo development medium MSG1 containing PEG but lacking gelling agent and activated charcoal, pipetted over gelled embryo development medium MSG1 lacking abscisic acid.
Embryos were developed, harvested and germinated as described in Example 4 above. The results of the counts of high quality cotyledonary stage embryos, and the germination tests with these embryos, are shown in Table 20 below.
In another experiment, an attempt had been made to decrease the osmotic potential of the liquid phase in order to facilitate filter sterilization.

[2] = tested on: P. taeda embryogenic cell lines; assay: as above; type: cell-based, Pinus taeda; remark: listed apart in the source
[3] = tested on: unknown fungus on Eucalyptus camaldulensis leaf explants; assay: Decontamination of Eucalyptus leaf explants of fungus; type: cell-based
Text: Eucalyptus camaldulensis leaves were explanted from seedlings for the production of callus, and then discovered to be contaminated with an unknown fungus. Contaminated explants were shaken together to obtain the same degree of contamination for all explants to be used in this decontamination example. Contamination of each explant with the fungus was verified by streaking the explant on a potato dextrose agar plate, and observing independent growth of the fungus on the potato dextrose agar.
Approximately half the Eucalyptus leaf explants were then treated to decontamination by washing and collection of the tissue using polyester support membranes after each wash, similar to the improved decontamination method described in Example 6, split among five treatments:
Following the washing of half the material according to the protocol described in […] in the treatments described in the paragraph above, using three washes of 30 minutes each, the washed and non-washed material was then divided over the same support membrane treatments A-F as described in Example 8, except that nested within each support membrane treatment was the prior washing or lack of washing treatment, and within each of these latter treatments, the five fungicidal treatments listed above were further nested, wherein the antifungal agents benomyl, miconazole, nystatin or thiophanate were added to the medium subtending the tissue and supports in place of cefotaxime. Finally, non-contaminated explants were submitted to all treatments to determine the effects of the treatments on plant regeneration in the absence of fungus. Five explants were plated for each treatment combination.
The explants were then cultured in a growth chamber set at 27±3° C. and under low light, and were transferred biweekly using the same support membranes but supplying fresh sterile liquid and solid medium.

[4] = tested on: P. taeda embryogenic cell lines; assay: Growth of pine embryogenic cells on polyester supports over biphasic media with eradicants, P. taeda; type: cell-based, Pinus taeda; settings: liquid phase under polyester support, cefotaxime 500 mg/L, TIMENTIN 400 mg/L
Text: (§1) Loblolly pine cell lines were used which had been grown and maintained as described in Examples 3-4 above, and purposely infected with bacteria as described in Example 6 above. Support membranes bearing plant tissue were then placed on gelled DCR2 maintenance media with various decontamination treatments. These treatments consisted of antibiotics (cefotaxime, carbenicillin, AUGMENTIN® or TIMENTIN®) as eradicants incorporated into the gelled DCR2 maintenance or selection media, the antibiotics incorporated into liquid DCR3 pipetted in a thin film over gelled DCR2 maintenance media lacking antibiotics, or the antibiotics incorporated into liquid DCR3 which was saturated into a filter paper laid on gelled DCR2 maintenance media lacking antibiotics. Support membranes bearing control cells were placed either on gelled DCR2 maintenance media, over liquid DCR3 pipetted in a thin film over gelled DCR2 maintenance media lacking antibiotics, or over a filter paper saturated with liquid DCR3 and laid on gelled DCR2 maintenance media lacking antibiotics. Decontamination and maintenance were continued for a period of approximately 12 weeks with transfer of the polyester support membranes, bearing the cells, every 14-21 days.

[5] = tested on: Hybrid pine embryogenic cell lines; assay: Growth of pine embryogenic cells on polyester supports over biphasic media with eradicants, hybrid pine; type: cell-based; settings: liquid phase under polyester support, cefotaxime 500 mg/L, TIMENTIN 400 mg/L
[6] = tested on: P. taeda embryogenic cell lines; assay: Embryogenicity after biphasic maintenance treatments, P. taeda; type: cell-based, Pinus taeda; settings: for % germination: embryos from cultures maintained over eradicant liquid phase; for Average Number Of Embryos Harvested Per Plate: eradicant in liquid phase during maintenance, cefotaxime 500 mg/L, TIMENTIN 400 mg/L
Text: as §1

[7] = tested on: Hybrid pine embryogenic cell lines; assay: Embryogenicity after biphasic maintenance treatments, hybrid pine; type: cell-based; settings: for % germination: embryos from cultures maintained over eradicant liquid phase; for Average Number Of Embryos Harvested Per Plate: eradicant in liquid phase during maintenance, cefotaxime 500 mg/L, TIMENTIN 400 mg/L
[8] = tested on: P. taeda embryogenic cell lines; assay: Embryo development over eradicants in liquid phase of biphasic development and maturation media, P. taeda; type: cell-based, Pinus taeda; settings: eradicant in liquid phase of development/maturation media, cefotaxime 500 mg/L, TIMENTIN 400 mg/L
Text: Agrobacterium contamination has been reported as recurring sometimes after long periods of time. With many species, eradicants are incorporated in all culture media used after the initial infection, including selection media, proliferation media, media to induce the formation of organs or the development of somatic embryos, media to elongate or mature organs or embryos that are formed, and regeneration media. For pine embryogenic cells, incorporation of eradicants into the embryo development and maturation media has been difficult due to the high temperature of polymerization of the media resulting from the incorporation of a high level of polyethylene glycol. Therefore, loblolly and hybrid pine cell lines grown and maintained as described in Examples 3-4 above were placed on polyester support membranes over gelled MSG1 embryo development and maturation media as described in Example 4 above, except that some of the development and maturation media were overlaid with various eradication treatments under the polyester support membranes. The treatments consisted of either no liquid phase, or a liquid phase identical to the gelled phase (except that gelling agent and activated charcoal were omitted) and incorporating either cefotaxime or TIMENTIN® as an eradicant. Three replicate plates were generated from each of […] (two from each of two P. taeda families and one hybrid pine family) for each of the treatments, and assessed for the ability of the cultures to develop high quality harvestable stage 3 embryos. Dishes were incubated in a dark growth chamber at 23±2° C. The membrane supports were transferred to new petri dishes containing fresh medium every 3 weeks. At week 9, stage 3 embryos were counted and those deemed suitable for germination were harvested.

[9] = tested on: Hybrid pine embryogenic cell lines; assay: Embryo development over eradicants in liquid phase of biphasic development and maturation media, hybrid pine; type: cell-based; settings: eradicant in liquid phase of development/maturation media, cefotaxime 500 mg/L, TIMENTIN 400 mg/L
Text: Agrobacterium contamination has been reported as recurring sometimes after long periods of time. With many species, eradicants are incorporated in all culture media used after the initial infection, including selection media, proliferation media, media to induce the formation of organs or the development of somatic embryos, media to elongate or mature organs or embryos that are formed, and regeneration media. For pine embryogenic cells, incorporation of eradicants into the embryo development and maturation media has been difficult due to the high temperature of polymerization of the media resulting from the incorporation of a high level of polyethylene glycol. […] Three replicate plates were generated from each of six embryogenic cell lines (two from each of two P. taeda families and one hybrid pine family) for each of the treatments, and assessed for the ability of the cultures to develop high quality harvestable stage 3 embryos. […] At week 9, stage 3 embryos were counted and those deemed suitable for germination were harvested.

[10] = P1, gelled phase lacking abscisic acid and liquid phase containing abscisic acid
[11] = P1, liquid phase with same abscisic acid content as gelled phase
[12] = P2, gelled phase lacking abscisic acid and liquid phase containing abscisic acid
[13] = P2, liquid phase with same abscisic acid content as gelled phase

CC1=CC(=O)CC(C)(C)[C@@]1(O)/C=C/C(C)=C\C(=O)O [Abscisic Acid, Abscisic acid]
Average Number Of High Quality Cotyledonary Embryos Per Plate [1, 10]: 30.3 ± 7.1
Percentage Of Resulting Embryos That Germinated [1, 10]: 52.5%
Average Number Of High Quality Cotyledonary Embryos Per Plate [1, 11]: 44.3 ± 21.1
Average Number Of High Quality Cotyledonary Embryos Per Plate [1, 12]: 48.7 ± 5.0
Percentage Of Resulting Embryos That Germinated [1, 12]: 57.5%
Average Number Of High Quality Cotyledonary Embryos Per Plate [1, 13]: 44.3 ± 4.9
Percentage Of Resulting Embryos That Germinated [1, 13]: 67.5%
decrease in embryos per plate ([1]; abscisic acid in liquid phase only, overall use of 5% of the amount): 30-60%
Average Number Of High Quality Cotyledonary Embryos Per Plate ([2]; L5, Liquid Phase containing ABA and PEG): 26.3 ± 45.6
Average Number Of High Quality Cotyledonary Embryos Per Plate ([2]; L5, Liquid Phase containing ABA but no PEG): 201.0 ± 44.5
Average Number Of High Quality Cotyledonary Embryos Per Plate ([2]; L9, Liquid Phase containing ABA and PEG): 64.0 ± 23.6
Average Number Of High Quality Cotyledonary Embryos Per Plate ([2]; L9, Liquid Phase containing ABA but no PEG): 97.0 ± 20.7
Average Number Of High Quality Cotyledonary Embryos Per Plate ([2]; L42, Liquid Phase containing ABA and PEG): 0
Average Number Of High Quality Cotyledonary Embryos Per Plate ([2]; L42, Liquid Phase containing ABA but no PEG): 0
Percentage Of Resulting Embryos That Germinated [2, 11]: 55.0%

CCCCNC(=O)n1c(NC(=O)OC)nc2ccccc21 [benomyl, Benomyl]
phenolic release into the medium from plant tissue ([3]; also from successfully decontaminated plant tissue): elicited considerable phenolic release into the medium
decontamination ([3]; in the washing (100 mg/L) and incorporated into the medium below the polyester supports): largely ineffective in decontamination

CO/N=C(\C(=O)N[C@@H]1C(=O)N2C(C(=O)O)=C(COC(C)=O)CS[C@H]12)c1csc(N)n1 [cefotaxime]
Average growth over a one-month period (two transfers) ([4]; P1): 7.20 + 0.28
Average growth over a one-month period (two transfers) ([4]; P2): 1.93 + 0.24
Average growth over a one-month period (two transfers) ([4]; P3): 6.75 + 0.25
Average growth over a one-month period (two transfers) ([4]; P4): 8.97 + 0.19
Average growth over a one-month period (two transfers) ([5]; H1): 4.53 + 0.28
Average growth over a one-month period (two transfers) ([5]; H2): 8.76 + 0.63
% germination ([6]; P1): (10%)
Average Number Of Embryos Harvested Per Plate ([6]; P1): 87.0 ± 37.5
% germination ([6]; P2): (66%)
Average Number Of Embryos Harvested Per Plate ([6]; P2): 81.7 ± 44.5
% germination ([6]; P3): (21%)
Average Number Of Embryos Harvested Per Plate ([6]; P3): 14.3 ± 4.2
% germination ([6]; P4): (36%)
Average Number Of Embryos Harvested Per Plate ([6]; P4): 34.0 ± 16.1
% germination ([7]; H1): (96%)
Average Number Of Embryos Harvested Per Plate ([7]; H1): 152.0 ± 40.8
% germination ([7]; H2): (88%)
Average Number Of Embryos Harvested Per Plate ([7]; H2): 77.0 ± 10.4
Number of Harvestable Cotyledonary Stage Embryos Developed ([8]; P1): 208.0 ± 94.8
Number of Harvestable Cotyledonary Stage Embryos Developed ([8]; P2): 269.0 ± 23.3
Number of Harvestable Cotyledonary Stage Embryos Developed ([8]; P3): 25.0 ± 17.7
Number of Harvestable Cotyledonary Stage Embryos Developed ([8]; P4): 18.0 ± 1.0
Number of Harvestable Cotyledonary Stage Embryos Developed ([9]; H1): 200.0 ± 51.2
Number of Harvestable Cotyledonary Stage Embryos Developed ([9]; H2): 210.0 ± 67.1

Clc1ccc(COC(Cn2ccnc2)c2ccc(Cl)cc2Cl)c(Cl)c1 (stereo not shown) [miconazole, Miconazole]
contaminated explants in which decontamination did not succeed ([3]; contaminated Eucalyptus explants): 7.5%
decontamination rate ([3]; contaminated Eucalyptus explants, 50 mg/L in wash medium): 92.5%

From US20020092037A1, “Use of membrane supports in plant tissue culture processes” (priority 2000, published 2002)
